Measurements published in patent US20050228046A1, “Alkylamine as an antimicrobial agent in ophthalmic compositions” (ADVANCED MEDICAL OPTICS, INC., priority 2004, published 2005).

How the values were obtained:
[1] = test system: Candida albicans, ATCC 10231; test: Microbiology challenge test, log drop; type: cell-based; details: for Log drop at 6 hour: Table 6: Myristylamine 0.001 % w/w
Procedure: (§1) The following is the procedure by which various antimicrobial agents and solutions are tested for their ability to reduce microbial loads over short periods of time, typically 24 hours and less. The procedure is a basic microbiology challenge test, which involves the inoculation of test product aliquots with a known number of viable cells of several test organisms, and assay for the survivors at various time intervals. The results are used to calculate log drops at soak times and construct kill-curves (graphs of survivors versus time) if desired.
(§2) Candida albicans, ATCC 10231, is one of five organisms specified per FDA and ISO/CLI tests for the testing of contact lens disinfectants (FDA Premarket Notification (510k) Guidance Document for Contact Lens Care Products, Appendix B, Apr. 1, 1997 and ISO/FDIS 14729: Ophthalmic optics-Contact lens care products-Microbiological requirements and test methods for products and regimens for hygienic management of contact lenses, January 2001). Contact lens disinfectants are also known as contact lens multi-purpose solutions when they are used for rinsing, cleaning, disinfection, storage and rewetting contact lenses. The five FDA/ISO specified test organisms are listed below: • Serratia marcescens, ATCC 13880 • Staphylococcus aureus, ATCC 6538 • Pseudomonas aeruginosa, ATCC 9027 • Candida albicans, ATCC 10231 • Fusarium solani, ATCC 36031
(§3) The specific test procedure for testing antimicrobial activity against the five FDA/ISO specified test organisms is as follows (C. albicans is provided as a specific example): Test samples are sterile-filtered through a 0.22 micron sterile filter into sterile plastic high density polyethylene bottles or plastic flasks. A 10-mL aliquot of test sample is aseptically transferred into a sterile polystyrene plastic test tube. Sterile saline (0.90 w/v % NaCl) with 0.05 w/v % Polysorbate 80 (SS+TWEEN) is transferred into a separate control tube. All samples and control are stored at 20-25° C. throughout the duration of the test.
(§4) Test cultures of Candida albicans, ATCC 10231 are prepared in the conventional manner. Candida albicans cultures are grown on agar slants from primary frozen, lyophilized or “Culti-loop®” cultures. Three mL of sterile 0.9% saline is used to gently dislodge culture growth from the agar surface. The resulting harvest is transferred to an appropriate screw cap test tube containing glass beads and vortexed for approximately one minute. The vortexed harvest is diluted as needed with sterile 0.9% saline to prepare the culture inoculum with a concentration of 1×10e8 CFU/mL. Fifty microliters of culture inoculum is added to 10.0 mL of each test sample and control, so that the final inoculum level is in the range of 1×10e5 to 1×10e6 CFU(colony forming units) per mL of Candida albicans, ATCC 10231. Each sample and control tube is vortexed briefly to disperse the inoculum. Contact time intervals for testing activity against Candida are typically 4 or 6 hours, to conform to the intended product label instructions for contact lens soak time.
(§5) Aerobic Plate Count Methods are performed in order to quantitate test samples for their levels of survivors. At appropriate assay times, 0.5 mL well-vortexed aliquots are removed from sample tubes and added to glass test tubes containing 4.5 mL Letheen Neutralizing Broth media (Berton, Dickinson and Company, Sparks, Md.). After a previously determined, validated neutralizing time period, these samples are diluted 10-fold through serial dilutions using glass test tubes containing 4.5 mL Letheen Neutralizing Broth media. Aliquots of 0.1 mL are removed from each dilution tube and spread-plate applied to agar plates containing Sabouraud Dextrose Agar (SAB)(Berton, Dickinson and Company, Sparks, Md.). 10^1 to 10^4 CFU/mL survivor levels are quantitated. […]

[2] = test system: Fusarium solani, ATCC 36031; test: Microbiology challenge test, log drop; type: cell-based; details: for Log drop at 6 hour: Table 6: Myristylamine 0.001 % w/w
Procedure: as §1, §2, §3, §4, §5

[3] = test system: Pseudomonas aeruginosa, ATCC 9027; test: Microbiology challenge test, log drop; type: cell-based; details: for Log drop at 6 hour: Table 6: Myristylamine 0.001 % w/w
Procedure: as §1, §2, §3, §4, §5

[4] = test system: Serratia marcescens, ATCC 13880; test: Microbiology challenge test, log drop; type: cell-based; details: for Log drop at 6 hour: Table 6: Myristylamine 0.001 % w/w
Procedure: as §1, §2, §3, §4, §5

[5] = test system: Staphylococcus aureus, ATCC 6538; test: Microbiology challenge test, log drop; type: cell-based; details: for Log drop at 6 hour: Table 6: Myristylamine 0.001 % w/w
Procedure: as §1, §2, §3, §4, §5

[6] = Contact lens uptake: content left in solution after shaking with lenses; type: physicochemical; details: Myristylamine with TPGS 20 fold
Procedure: The results in Table 9A show the remaining quaternary ammonium and tertiary amine content left in solution after a 15 ml-solution-2 lenses closed system has been shaken for 6 days at room temperature. […] The control which was run for this experiment, which includes the remaining ingredients in the solutions referenced in Table 9A are listed in Table 9B. As one of ordinary skill in the art would realize, the less quaternary ammonium or tertiary amine content remaining in solution after the shaking period, the higher the absorption by the lenses.

[7] = Solubility in aqueous media; type: physicochemical
[8] = Table 2A: Myristylamine 0.0003 % w/w, Tetronic 1307 0.05, pH 7.8
[9] = Table 2A: Myristylamine 0.0005 % w/w, Tetronic 1307 0.05, pH 7.8
[10] = Table 3: Myristylamine 0.0005 w/v % with WSCP 0.001, NaClO2 0.01, NaCitrate 0.4, T1307 0.05
[11] = Table 3: Myristylamine 0.0005 w/v %, WSCP 0.0, NaClO2 0.0, NaCitrate 0.0, T1307 0.05
[12] = Table 4: Myristylamine 0.0003 w/v % with PHMB 0.00003, Tetronic 1107 0.05, pH 7.8
[13] = Table 4: Myristylamine 0.0003 w/v %, PHMB 0, Tetronic 1107 0.05, pH 7.8
[14] = Table 5: Myristylamine 0.0005 w/v % with Polyquaternium-1 0.001, NaCitrate 0.6, Tetronic 1304 0.05, pH 7.8
[15] = Tween 80 0.0074, Polyquaternium-1 0, pH 7.3, 6 hour
[16] = Tween 80 0.0074, with Polyquaternium-1 0.000075, pH 7.3, 6 hour

In the case of `CCCCCCCCCCCCCCN` [Myristylamine], the “Log Drop” value [1, 8] is reported as 3.67, the “Log Drop” value [1, 9] is reported as 4.41 and the “Log Drop” value [1, 10] is reported as 2.95. The “Log Drop” value [1, 11] was 3.29, the “Log Drop” value [1, 12] was 3.31 and the “Log Drop” value [1, 13] was 3.67. For the same compound, the “Log Drop” value [1, 14] was 4.52, the “Log drop at 6 hour” value [1, 15] was over 4.67 and the “Log drop at 6 hour” value [1, 16] was over 4.67. For the same compound, the “antimicrobial activity against C. albicans” value ([1]; result in words, Table 2A data) was “strong antimicrobial activity against C. albicans”, the “Log Drop” value [2, 8] was over 4.34 and the “Log Drop” value [2, 9] was over 4.34. The “Log Drop” value [2, 10] was over 4.34, the “Log Drop” value [2, 11] was over 4.34 and the “Log Drop” value [2, 12] was over 4.34. The “Log Drop” value [2, 13] was over 4.34, the “Log Drop” value [2, 14] was over 4.34 and the “Log drop at 6 hour” value [2, 15] was 3.73. For the same compound, the “Log drop at 6 hour” value [2, 16] was 3.12, the “Log Drop” value [3, 8] was over 4.63 and the “Log Drop” value [3, 9] was over 4.63. For the same compound, the “Log Drop” value [3, 10] was over 4.63, the “Log Drop” value [3, 11] was over 4.63 and the “Log Drop” value [3, 12] was over 4.63. The “Log Drop” value [3, 13] was over 4.63, the “Log Drop” value [3, 14] was over 4.63 and the “Log drop at 6 hour” value [3, 15] was over 4.58. For the same compound, the “Log drop at 6 hour” value [3, 16] was over 4.58, the “Log Drop” value [4, 8] was 1.18 and the “Log Drop” value [4, 9] was 2.6. The “Log Drop” value [4, 10] was 3.1, the “Log Drop” value [4, 11] was 1.68 and the “Log Drop” value [4, 12] was 3.46. For the same compound, the “Log Drop” value [4, 13] was 1.18, the “Log Drop” value [4, 14] was 3.64 and the “Log drop at 6 hour” value [4, 15] was 1.19. The “Log drop at 6 hour” value [4, 16] was 3.12, the “Log Drop” value [5, 8] was 2.87 and the “Log Drop” value [5, 9] was 4.8. The “Log Drop” value [5, 10] was 3.74, the “Log Drop” value [5, 11] was 2.93 and the “Log Drop” value [5, 12] was 4.21. For the same compound, the “Log Drop” value [5, 13] was 2.87, the “Log Drop” value [5, 14] was 4.69 and the “Log drop at 6 hour” value [5, 15] was 1.04. For the same compound, the “Log drop at 6 hour” value [5, 16] was 3.21, the “remaining content left in solution, Acuvue” value ([6]; 15 ml solution, 2 Acuvue lenses, closed system shaken 6 days at room temperature) was 34.1 ppm and the “remaining content left in solution, Purevision” value ([6]; 15 ml solution, 2 Purevision lenses, closed system shaken 6 days at room temperature) was 13.0 ppm. The “remaining content left in solution, Without Lens” value ([6]; 15 ml system without lenses, shaken 6 days at room temperature) was 37.9 ppm, the “solubility in aqueous solution with acid and surfactant” value ([7]; acid and surfactant containing an alkyl chain coexist, solution pH below 6) was “may be dissolved in an aqueous solution” and the solubility in acid ([7]; ambient temperature, solution pH below 2) was “insoluble in acid at ambient temperature”. For the same compound, the solubility in water ([7]; water or basic solution) was “does not dissolve in water or in a basic solution”.
